Assay results from article PMC6268079, “Synthesis and Biological Evaluation of 2-(3-Fluoro-4-nitro phenoxy)-N-phenylacetamide Derivatives as Novel Potential Affordable Antitubercular Agents” (Molecules, 2012).
≈ marks a conversion by molar mass, not a printed value. Like-named read-outs stand apart in the source and are kept apart here.

Tests used:
[1] = system: Hela Henrietta Lacks strain cancer cells; test: MTT-based cytotoxicity assay, Hela; assay type: cell-based; settings: Homo sapiens
Protocol: (§1) Briefly, cells (2,500/well) were seeded in 96-well plates and cultured for 24 h, followed by treatment with the target compounds for another 48 h. MTT ([…], 20 μL) was added per well and incubated for another 2.5 h at 37 °C. Then the supernatant fluid was removed and 150 μL/well DMSO was added for 15–20 min. The absorbance (OD) of each well was measured at 570 nm, using a SpectraMAX M5 microplate spectrophotometer (Molecular Devices, Sunnyvale, CA, USA). The IC50 Values are means ± SEM of three independent experiments.

[2] = system: A375 human melanoma cells; test: MTT-based cytotoxicity assay, A375; assay type: cell-based
Protocol: as §1

[3] = system: HepG2 hepatocellular liver carcinoma cells; test: MTT-based cytotoxicity assay, HepG2; assay type: cell-based; settings: Homo sapiens
Protocol: as §1

[4] = system: HCT116 colorectal carcinoma cells; test: MTT-based cytotoxicity assay, HCT116; assay type: cell-based; settings: Homo sapiens
Protocol: as §1

[5] = system: A549 lung adenocarcinoma epithelial cells; test: MTT-based cytotoxicity assay, A549; assay type: cell-based; settings: Homo sapiens
Protocol: as §1

[6] = system: SKOV-3 ovarian carcinoma cells; test: MTT-based cytotoxicity assay, SKOV-3; assay type: cell-based; settings: Homo sapiens
Protocol: as §1

[7] = system: M. tuberculosis H37Rv (ATCC 27294); test: Antitubercular activity by microdilution method, M. tuberculosis H37Rv; assay type: cell-based; settings: Mycobacterium tuberculosis, 264 h, growth similar to well inoculated with 10 CFU, read after 11 days by visual investigation, three replicates
[8] = system: Vero normal African green monkey kidney epithelial cells; test: MTT-based cytotoxicity assay, Vero; assay type: cell-based; settings: for IC50: Chlorocebus sabaeus
Protocol: as §1

[9] = system: six different tumor cell lines; test: MTT-based cytotoxicity assay, six cell lines stated together
Protocol: as §1

[10] = Hela, MTT, 48 h treatment, means ± SEM of three independent experiments, read-out: IC50
[11] = A-375, A375, MTT, 48 h treatment, means ± SEM of three independent experiments, read-out: IC50
[12] = HepG2, MTT, 48 h treatment, means ± SEM of three independent experiments, read-out: IC50
[13] = HCT-116, HCT116, MTT, 48 h treatment, means ± SEM of three independent experiments, read-out: IC50
[14] = A549, MTT, 48 h treatment, means ± SEM of three independent experiments, read-out: IC50
[15] = SK-OV-3, SKOV-3, MTT, 48 h treatment, means ± SEM of three independent experiments, read-out: IC50
[16] = Vero normal cells, MTT, 48 h treatment, means ± SEM of three independent experiments, read-out: IC50

O=C(COc1ccc([N+](=O)[O-])c(F)c1)Nc1cccc(Cl)c1 [Compound 3a, N-(3-Chlorophenyl)-2-(3-fluoro-4-nitrophenoxy)acetamide]
IC50 [1, 10]: > 40 µM
IC50 [2, 11]: > 40 µM
IC50 [3, 12]: > 40 µM
IC50 [4, 13]: > 40 µM
IC50 [5, 14]: > 40 µM
IC50 [6, 15]: > 40 µM
melting point: 150 to 151 °C
MIC [7]: 16 µg/mL (≈ 49.3 µM)
IC50 [8, 16]: > 40 µM

O=C(COc1ccc([N+](=O)[O-])c(F)c1)Nc1ccc(Cl)c(Cl)c1 [Compound 3b, N-(3,4-Dichlorophenyl)-2-(3-fluoro-4-nitrophenoxy)acetamide]
melting point: 175 to 176 °C
MIC [7]: 32 µg/mL (≈ 89.1 µM)

O=C(COc1ccc([N+](=O)[O-])c(F)c1)Nc1ccc(Br)cc1F [Compound 3c, N-(4-Bromo-2-fluorophenyl)-2-(3-fluoro-4-nitrophenoxy)acetamide]
melting point: 160 to 162 °C
MIC [7]: 32 µg/mL (≈ 82.7 µM)

O=C(COc1ccc([N+](=O)[O-])c(F)c1)Nc1ccc(Cl)c(C(F)(F)F)c1 [Compound 3d, N-(4-Chloro-3-(trifluoromethyl)phenyl)-2-(3-fluoro-4-nitrophenoxy)acetamide]
IC50 [1, 10]: 33.2 ± 2.5 µM
IC50 [2, 11]: > 40 µM
IC50 [3, 12]: > 40 µM
IC50 [4, 13]: > 40 µM
IC50 [5, 14]: > 40 µM
IC50 [6, 15]: > 40 µM
melting point: 163 to 164 °C
MIC [7]: 16 µg/mL (≈ 40.7 µM)
IC50 [8, 16]: > 40 µM

O=C(COc1ccc([N+](=O)[O-])c(F)c1)Nc1cccc([N+](=O)[O-])c1 [Compound 3e, 2-(3-Fluoro-4-nitrophenoxy)-N-(3-nitrophenyl)acetamide]
melting point: 199 to 201 °C
MIC [7]: 64 µg/mL (≈ 191 µM)

COc1ccc(NC(=O)COc2ccc([N+](=O)[O-])c(F)c2)c(OC)c1 [Compound 3f, N-(2,4-Dimethoxyphenyl)-2-(3-fluoro-4-nitrophenoxy)acetamide]
melting point: 174 to 175 °C
MIC [7]: 64 µg/mL (≈ 183 µM)

O=C(COc1ccc([N+](=O)[O-])c(F)c1)Nc1cc(C(F)(F)F)cc(C(F)(F)F)c1 [Compound 3g, N-(3,5-bis(Trifluoromethyl)phenyl)-2-(3-fluoro-4-nitrophenoxy)acetamide]
IC50 [1, 10]: 20 ± 1.1 µM
IC50 [2, 11]: 22.6 ± 0.9 µM
IC50 [3, 12]: 21.6 ± 1.1 µM
IC50 [4, 13]: 33.8 ± 2 µM
IC50 [5, 14]: 38.2 ± 1.5 µM
IC50 [6, 15]: 12.2 ± 1.3 µM
melting point: 168 to 169 °C
MIC [7]: 8 µg/mL (≈ 18.8 µM)
IC50 [8, 16]: > 40 µM

O=C(COc1ccc([N+](=O)[O-])c(F)c1)Nc1ccc(F)c(Cl)c1 [Compound 3h, N-(3-Chloro-4-fluorophenyl)-2-(3-fluoro-4-nitrophenoxy)acetamide]
IC50 [1, 10]: > 40 µM
IC50 [2, 11]: > 40 µM
IC50 [3, 12]: > 40 µM
IC50 [4, 13]: > 40 µM
IC50 [5, 14]: > 40 µM
IC50 [6, 15]: > 40 µM
melting point: 166 to 167 °C
MIC [7]: 16 µg/mL (≈ 46.7 µM)
IC50 [8, 16]: > 40 µM

O=C(COc1ccc([N+](=O)[O-])c(F)c1)Nc1ccc(Br)cc1 [Compound 3i, N-(4-Bromophenyl)-2-(3-fluoro-4-nitrophenoxy)acetamide]
melting point: 166 to 167 °C
MIC [7]: 32 µg/mL (≈ 86.7 µM)

N#Cc1ccccc1NC(=O)COc1ccc([N+](=O)[O-])c(F)c1 [Compound 3j, N-(2-Cyanophenyl)-2-(3-fluoro-4-nitrophenoxy)acetamide]
melting point: 172 to 174 °C
MIC [7]: 64 µg/mL (≈ 203 µM)

O=C(COc1ccc([N+](=O)[O-])c(F)c1)Nc1ccccc1C(F)(F)F [Compound 3k, 2-(3-Fluoro-4-nitrophenoxy)-N-(2-(trifluoromethyl)phenyl)acetamide]
melting point: 146 to 147 °C
MIC [7]: 64 µg/mL (≈ 179 µM)

O=C(COc1ccc([N+](=O)[O-])c(F)c1)Nc1ccc(OC(F)(F)F)cc1 [Compound 3l, 2-(3-Fluoro-4-nitrophenoxy)-N-(4-(trifluoromethoxy)phenyl)acetamide]
melting point: 146 to 148 °C
MIC [7]: 32 µg/mL (≈ 85.5 µM)

O=C(COc1ccc([N+](=O)[O-])c(F)c1)Nc1ccccc1[N+](=O)[O-] [Compound 3m, 2-(3-Fluoro-4-nitrophenoxy)-N-(2-nitrophenyl)acetamide]
IC50 ([1]; HeLa, 48 h): > 40 µM
IC50 ([9]; one bound stated for all six cell lines, read-out: IC50 against the tested six different cell lines): > 40 µM
inhibitory effects against six different tumor cell lines ([9]; result in words): no inhibitory effects
safety profile / toxicity in six different cell lines ([9]; result in words): good safety profile
IC50 ([2]; A-375, 48 h): > 40 µM
IC50 ([3]; HepG2, 48 h): > 40 µM
IC50 ([4]; HCT-116, 48 h): > 40 µM
IC50 ([5]; A549, 48 h): > 40 µM
IC50 ([6]; SK-OV-3, 48 h): > 40 µM
melting point: 201 to 202 °C
MIC [7]: 4 µg/mL (≈ 11.9 µM)
IC50 ([8]; Vero, 48 h): > 40 µM
safety profile in a vero cell line ([8]; MTT assay, result in words): good safety profile

O=C(COc1ccc([N+](=O)[O-])c(F)c1)Nc1ccc(Br)cc1Cl [Compound 3n, N-(4-Bromo-2-chlorophenyl)-2-(3-fluoro-4-nitrophenoxy)acetamide]
melting point: 173 to 175 °C
MIC [7]: 32 µg/mL (≈ 79.3 µM)

O=C(COc1ccc([N+](=O)[O-])c(F)c1)Nc1ccc(C(F)(F)F)cc1 [Compound 3o, 2-(3-Fluoro-4-nitrophenoxy)-N-(4-(trifluoromethyl)phenyl)acetamide]
IC50 [1, 10]: 33.8 ± 1.7 µM
IC50 [2, 11]: 28.3 ± 1.2 µM
IC50 [3, 12]: > 40 µM
IC50 [4, 13]: > 40 µM
IC50 [5, 14]: > 40 µM
IC50 [6, 15]: 28.6 ± 2.3 µM
melting point: 173 to 175 °C
MIC [7]: 16 µg/mL (≈ 44.7 µM)
IC50 [8, 16]: > 40 µM

Cc1ccc([N+](=O)[O-])cc1NC(=O)COc1ccc([N+](=O)[O-])c(F)c1 [Compound 3p, 2-(3-Fluoro-4-nitrophenoxy)-N-(2-methyl-5-nitrophenyl)acetamide]
melting point: 211 to 213 °C
MIC [7]: 64 µg/mL (≈ 183 µM)

COC(=O)COc1ccc(NC(=O)COc2ccc(C)cc2C)cc1 [I, methyl 2-(4-(2-(2,4-dimethylphenoxy)acetamido)phenoxy)acetate]
MIC [7]: 4 µg/mL (≈ 11.6 µM)

NNC(=O)c1ccncc1 [Isoniazide]
MIC [7]: 0.0625 µg/mL (≈ 0.456 µM)
